Experimental findings from patent publication US8338430B2, “N-substituted piperazines” (Dow AgroSciences, LLC., priority 2005, dated 2012) are described below.

What all share (assay type): in vivo
The test system of experiment [1] is Mycosphaerella graminicola=Septoria tritici. Nature of the experiment: Fungicidal test for SEPTTR, speckled leaf blotch of wheat, one day protectant. To be noted: 24 h, wheat plants (variety Monon), sprayed one day before inoculation. As to the method: The compounds identified in Table 4 were prepared using the procedures illustrated in the previous examples and these compounds were tested against wheat glume blotch and wheat leaf blotch using the protocols described herein. Fungicidal Test for […] Speckled Leaf Blotch of Wheat (Mycosphaerella graminicola=Septoria tritici; Bayer code […]): Wheat plants (variety Monon) were grown from seed in a greenhouse in 50% pasteurized soil/50% soil-less mix until the first true leaf was fully expanded, with 3-8 seedlings per pot. These plants were sprayed until wet with the formulated test compound at a rate of 25 ppm. On the following day, the leaves were inoculated with an aqueous spore suspension of Septoria tritici and the plants were kept in high humidity (one day in a dark dew chamber followed by four to seven days in a lighted dew chamber) to permit spores to germinate and infect the leaf The plants were then transferred to a greenhouse until disease developed on untreated control plants.

Experiment [2] has as its system Leptosphaeria nodorum=Stagnospora nodorum. Nature of the experiment: Fungicidal test for LEPTNO, glume blotch of wheat, one day protectant. To be noted: 24 h, wheat plants (variety Yuma), sprayed one day before inoculation. How it is done:
The compounds identified in Table 4 were prepared using the procedures illustrated in the previous examples and these compounds were tested against wheat glume blotch and wheat leaf blotch using the protocols described herein. Fungicidal Test for […] Each pot contained 3-20 seedlings. These plants were sprayed until wet with the formulated test compound at a rate of 25 ppm. On the following day, the leaves were inoculated with an aqueous spore suspension of Leptosphaeria nodorum and the plants were kept in high humidity (one day in a dark dew chamber followed by four to seven days in a lighted dew chamber) to permit spores to germinate and infect the leaf. The plants were then transferred to a greenhouse until disease developed on untreated control plants.

Experiment [3] relates to mosquito (Aedes aegypti) larvae. Nature of the experiment: Mosquito larvae mortality (AEDSAE). To be noted: 72 h, 20 μg/ml, mortality three days after treatment, read-out: AEDSAE: % mortality against mosquito larvae. As to the method:
(§1) The compounds identified in TABLE 2 were prepared using the procedures illustrated in the previous examples and these compounds were tested against beet armyworm, mosquito, fruit fly, and cotton aphid using protocols described after.
(§2) Compounds were evaluated on mosquito (Aedes aegypti) larvae, beet armyworm (Spodoptera exigua) larvae, fruit fly (Drosophila melanogaster) adults and cotton aphid (Aphis gossypi). Newly hatched mosquito larvae (about 50 larvae/well) in 96-well microtiter plates in 230 ul of water containing powdered liver/yeast extract (1 gr/100 ml) were treated with 20 ppm solution of the test compound. Following treatment the plates were covered with a lid and mortality was determined three days after treatment. Beet armyworm eggs (about 5 per well) were placed on artificial diet (in a 96-well microtiter plate) treated with a 4000 ppm solution of a test compound in combination with piperonyl butoxide (in approximate ratio of 1:4). After infestation, the plates were covered with a lid and mortality was determined seven days following treatment. Five-day old fruit fly adults (about 5/well) were placed in deep-well microtiter plates containing 250 ul/well of a 2% agar-10% sucrose mixture that had been treated with a 4000 ppm solution of a test compound. Following infestation, the plates were covered with a lid and mortality was determined three days after treatment. Treatments for the mosquito and armyworm were replicated six times each, that of the fruit fly three times each.

The test system of experiment [4] is fruit fly (Drosophila melanogaster) adults. Briefly: Adult fruit fly mortality on artificial diet (DROSME). Particulars: 72 h, 4000 μg/ml, mortality three days after treatment, read-out: DROSME: % mortality against adult fruit fly on artificial diet. How it is done:
as §1, §2

Experiment [5] concerns beet armyworm (Spodoptera exigua) larvae. Nature of the experiment: Beet armyworm mortality on artificial diet (LAPHEG). To be noted: 168 h, 4000 μg/ml, with piperonyl butoxide (approx. 1:4), mortality seven days after treatment, read-out: LAPHEG: % mortality against beet armyworm on artificial diet. How it is done: as §1, §2
The test system of experiment [6] is cotton aphid (Aphis gossypi). Nature of the experiment: Cotton aphid foliar spray test on squash (CA 200). To be noted: 72 h, squash cotyledons, 3 days, Corrected % Control (Abbott), read-out: CA 200: % control against cotton aphid in foliar spray tests. How it is done:
The compounds identified in TABLE 2 were prepared using the procedures illustrated in the previous examples and these compounds were tested against beet armyworm, mosquito, fruit fly, and cotton aphid using protocols described after. […]
Squash with fully expanded cotyledon leaves were trimmed to one cotyledon per plant and infested with cotton aphid (wingless adult and nymph) 1 day prior to chemical application.
Each plant is examined before chemical application to ensure proper infestation (ca. 30-70 aphids per plant). Compounds (3 mg) were dissolved in 3 mL of acetone:methanol (50:50) solvent, forming stock solutions of 1000 ppm. The stock solutions were then diluted with 0.025% Tween 20 (in H2O) to make […]. A hand-held Devilbiss sprayer was used to apply the spray solutions until runoff to both sides of the squash cotyledon leaves. Four plants (4 replications) were used for each concentration of each compound. Reference plants (solvent check) were sprayed with 0.025% Tween 20 only. Treated plants were held in a holding room for 3 days at approximately 23° C. and 40% RH before the number of live aphids on each plant was recorded. Insecticidal activity was measured by Corrected % Control using Abbott's correction formula and presented in TABLE 2: Corrected % Control=100*(X−Y)/X • where X=No. of live aphids on solvent check plants • Y=No. of live aphids on treated plants

Turning to `CC(c1ccccc1)N1CCN(Cc2csc3ccc(Cl)cc23)CC1` (stereo not drawn) [Compound 236], the pest or weed control at 25 ppm in experiment [1] was in the range of 1 to 25%; in experiment [2], 50 to 100%.

For `CC(c1ccccc1)N1CCN(Cc2cccc(-n3cccc3)c2)CC1` (stereo not drawn) [Compound 234], the pest or weed control at 25 ppm in experiment [1] was 1 to 25%; in experiment [2], 50 to 100%.

As a reminder, the mortality is the share of the test organisms that died. As for `c1ccc(OCCN2CCN(Cc3ccccc3-c3ccccc3)CC2)cc1` [Compound 92], the mortality at 20 µg/mL in experiment [3] was 1 to 25%. Further, the results for the mortality at 4000 µg/mL in experiment [4] and in experiment [5] were 26 to 49% and 1 to 25%, respectively. Also, the results for the pest or weed control at 25 ppm in experiment [1] and in experiment [2] were 1 to 25% and 50 to 100%, respectively. The pest or weed control at 200 ppm in experiment [6] was 1 to 25%.

In the case of `c1ccc(COc2ccc(CN3CCN(CCOc4ccccc4)CC3)cc2)cc1` [Compound 111], the pest or weed control at 25 ppm in experiment [1] and in experiment [2] was 50 to 100% in each case.

With `c1ccc(CCN2CCN(Cc3ccc(OCc4ccccc4)cc3)CC2)cc1` [Compound 112], the values for the pest or weed control at 25 ppm in experiment [1] and in experiment [2] were 50 to 100% and 1 to 25%, respectively.

For `c1ccc(CCCN2CCN(Cc3ccc4ccccc4c3)CC2)cc1` [Compound 118], the pest or weed control at 25 ppm in experiment [1] and in experiment [2] was 50 to 100% each time.

Consider `O=C(C1CC1)N1CCN(Cc2ccc(OCc3ccccc3)cc2)CC1` [Compound 114], for which the pest or weed control at 25 ppm in experiment [1] fell in the range of 50 to 100%; in experiment [2] it was 1 to 25%.

Take `CC(c1ccccc1)N1CCN(Cc2ccc3ccccc3c2)CC1` (stereo not drawn) [Compound 187]: the pest or weed control at 25 ppm in experiment [1] and in experiment [2] was 50 to 100% in each case.

As to `c1ccc(-c2ccccc2CN2CCN(CCc3ccccn3)CC2)cc1` [Compound 110], the pest or weed control at 25 ppm in experiment [1] is 50 to 100%; in experiment [2], 1 to 25%.

For `FC(F)(F)c1ccccc1CCN1CCN(Cc2ccc(Cl)s2)CC1` [Compound 81], the mortality at 20 µg/mL in experiment [3] fell in the range of 1 to 25%. The mortality at 4000 µg/mL in experiment [4] and in experiment [5] was 1 to 25% each time. In addition, the pest or weed control at 25 ppm in experiment [1] and in experiment [2] was 50 to 100% throughout. Also, the pest or weed control at 200 ppm in experiment [6] was in the range of 50 to 100%.

In the case of `FC(F)(F)c1ccccc1CCN1CCN(Cc2cccc(-n3cccc3)c2)CC1` [Compound 119], the pest or weed control at 25 ppm lay in the range of 26 to 49% in experiment [1] and 50 to 100% in experiment [2].

`CCOCCN1CCN(Cc2ccc(OCc3ccccc3)cc2)CC1` [Compound 109]: the pest or weed control at 25 ppm in experiment [1] was in the range of 50 to 100%; in experiment [2] it was 1 to 25%.

For `c1ccc(CCN2CCN(Cc3ccccc3-c3ccccc3)CC2)cc1` [Compound 93], the mortality at 20 µg/mL in experiment [3] was 1 to 25%. For the same compound, the mortality at 4000 µg/mL lay within 26 to 49% in experiment [4] and 1 to 25% in experiment [5]. Also, the pest or weed control at 25 ppm in experiment [1] was 50 to 100%; in experiment [2], 1 to 25%. For the same compound, the pest or weed control at 200 ppm in experiment [6] fell in the range of 1 to 25%.

For the compound `FC(F)(F)c1ccccc1CCN1CCN(CC2COc3ccccc3O2)CC1` (stereo not drawn) [Compound 100], in experiment [3], the mortality at 20 µg/mL lay within 1 to 25%. Moreover, the mortality at 4000 µg/mL was 26 to 49% in experiment [4] and 1 to 25% in experiment [5]. The pest or weed control at 200 ppm in experiment [6] is 50 to 100%.

Turning to `FC(F)(F)c1ccccc1CCN1CCN(Cc2ccc3ccccc3c2)CC1` [Compound 80], the mortality at 20 µg/mL in experiment [3] is 1 to 25%. Also, the mortality at 4000 µg/mL in experiment [4] was in the range of 1 to 25%; in experiment [5] it was 26 to 49%. The pest or weed control at 25 ppm in experiment [1] and in experiment [2] was 50 to 100% each time. Moreover, the pest or weed control at 200 ppm in experiment [6] is 26 to 49%.

As for `FC(F)(F)c1ccccc1CCN1CCN(Cc2csc3ccc(Cl)cc23)CC1` [Compound 88], the mortality at 20 µg/mL in experiment [3] is 1 to 25%. Further, the mortality at 4000 µg/mL in experiment [4] and in experiment [5] was 1 to 25% in each case. Further, the pest or weed control at 25 ppm was in the range of 50 to 100% in experiment [1] and 1 to 25% in experiment [2]. For the same compound, the pest or weed control at 200 ppm in experiment [6] is 50 to 100%.
